The values below come from ChEMBL document CHEMBL1201862, “PubChem BioAssay data set” (2004).

Holding throughout (experiment): NCI-60 cell line screen, 48 h
Test [1] deals with NCI-H226.
Test [2] concerns HOP-62.
The test system of test [3] is NCI/ADR-RES.
The subject of test [4] is IGROV-1.
Test [5] has as its system 786-0.
Test [6] relates to T47D.
Test [7] has as its system ACHN.
In test [8] the test system is OVCAR-8.
Test [9] concerns SNB-19.
Test [10] relates to MOLT-4.
The subject of test [11] is SF-268.
Test [12] deals with UACC-257.
The test system of test [13] is BT-549.
In test [14] the test system is SR.
Test [15] has as its system SK-MEL-28.
Test [16] deals with HCT-116.
Test [17] concerns SK-MEL-5.
Test [18] relates to SK-OV-3.
In test [19] the test system is Hs-578T.

SMILES strings stand for the structures.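 Cells were grown in 96-well plates and exposed to each compound for 48 hours at five concentrations; endpoints were interpolated linearly between bracketing concentrations, or set to the highest concentration if not reached. GI50 = concentration required for 50% inhibition of growth.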 The source made the active and inactive calls. No stated cut-off is given here; in the data, active = GI50 up to about 1.1 µM and inactive = higher.

On to `C[C@H](CCC(=O)O)[C@H]1CC[C@H]2[C@@H]3[C@H](O)C[C@@H]4C[C@H](O)CC[C@]4(C)[C@H]3CC[C@]12C` [CHENODIOL], for which the GI50 in test [1] was 22.2 µM (inactive); in [2] it was 37.2 µM (inactive); in [3], 36.6 µM (inactive); in test [4], 27 µM (inactive); in test [5], 36.3 µM (inactive); in [6] it was 40.2 µM (inactive). In addition, the GI50 in test [7] was 46.8 µM (inactive); in [8], 12.1 µM (inactive); in test [9], 43.8 µM (inactive); in test [10] it was 24.7 µM (inactive); in test [11], 44.1 µM (inactive); in test [12], 41.8 µM (inactive). Also, the GI50 in test [13] is 36.3 µM (inactive); in test [14], 14.6 µM (inactive); in [15] it was 42.6 µM (inactive); in test [16] it was 33.8 µM (inactive).

Consider `O=C(O)CSc1nnc(-c2ccccc2)[nH]1`, for which the GI50 in test [1], in [17], in [2], in [18], in test [4] and in test [5] was > 100 µM (inactive) throughout. Further, the GI50 in [7], in test [8], in test [9], in [10], in test [11] and in test [15] was > 100 µM (inactive) throughout.

For the compound `CSc1nc(-c2ccccc2)nc(C(C#N)C#N)n1`, the GI50 in test [1], in test [17], in test [2], in test [3], in [18] and in test [19] was > 100 µM (inactive) each time. Besides, the GI50 in [4], in test [5], in [6], in test [7], in [8] and in test [9] was > 100 µM (inactive) throughout. Further, the GI50 in test [10], in test [11], in [12], in [15] and in [16] was > 100 µM (inactive) each time.

Take `Cc1cc(C)c(N[S+]([O-])c2cccc(Cl)c2)c(C)c1` (stereo unspecified): the GI50 in test [1], in test [2], in [3], in test [5], in test [7] and in test [8] was > 100 µM (inactive) each time. In addition, the GI50 in test [9], in [10], in test [11], in test [12], in [13] and in test [14] was > 100 µM (inactive) in each case. For the same compound, the GI50 in test [15] and in [16] was > 100 µM (inactive) throughout.

Turning to `CC(C)=CCCc1c(C)ccc2c1C(=O)C(=O)C(C(C)C)=C2`, the GI50 in test [1] was > 22 µM (inactive); in [17], 20 µM (inactive); in test [18], > 22 µM (inactive); in [4] it was 9.84 µM (inactive); in test [5], 3.95 µM (inactive); in test [7] it was 3.8 µM (inactive). Moreover, the GI50 in test [8] was 3.85 µM (inactive); in test [9] it was > 22 µM (inactive); in test [10], 1.36 µM (inactive); in [11] it was 5.71 µM (inactive); in [14], 3.5 µM (inactive); in test [15], 3.87 µM (inactive). The GI50 in [16] is 3.57 µM (inactive).

`Cc1ccc(Nc2nc(C)c(C(=O)CC(=O)C(=O)Nc3ccc(Cl)cc3)s2)cc1`: the GI50 in [17], in [2], in test [18], in test [19], in test [4] and in test [5] was > 100 µM (inactive) each time. In addition, the GI50 in test [6] is > 100 µM (inactive); in test [7] it was > 100 µM (inactive); in [9], > 100 µM (inactive); in test [10], > 100 µM (inactive); in test [11], 49.5 µM (inactive); in test [12] it was > 100 µM (inactive). The GI50 in test [14], in test [15] and in test [16] was > 100 µM (inactive) each time.

Regarding `Nc1ncc(Cc2nc3ccccc3s2)s1`, the GI50 was 24.6 µM (inactive) in test [1]; 28.6 µM (inactive) in test [17]; > 100 µM (inactive) in test [2]; 91.6 µM (inactive) in test [3]; > 100 µM (inactive) in test [18]; 15.1 µM (inactive) in test [19]. The GI50 in test [4] is 63.8 µM (inactive); in test [5], > 100 µM (inactive); in test [6], 48.6 µM (inactive); in test [7], 54.5 µM (inactive); in test [8] it was 57.3 µM (inactive); in test [9] it was > 100 µM (inactive). The GI50 in [10] was > 100 µM (inactive); in test [11] it was > 100 µM (inactive); in test [12], 76.7 µM (inactive); in test [15], > 100 µM (inactive); in [16] it was 52.1 µM (inactive).

For `CC1(O)Oc2ccc3ccccc3c2C=C1C(N)=O` (stereo unspecified), the GI50 was 58.6 µM (inactive) in test [17]; 36.7 µM (inactive) in test [2]; > 100 µM (inactive) in [18]; > 100 µM (inactive) in test [19]; 79.8 µM (inactive) in [4]; > 100 µM (inactive) in [5]. The GI50 in test [6] is 36.6 µM (inactive); in [7], > 100 µM (inactive); in test [9] it was > 100 µM (inactive); in test [10] it was 18.6 µM (inactive); in [11], 71.9 µM (inactive); in test [12], > 100 µM (inactive). Also, the GI50 was 46.5 µM (inactive) in test [14], > 100 µM (inactive) in [15] and > 100 µM (inactive) in [16].

For `O=S(=O)(c1ccccc1)N1CN2CN(C1)CN(S(=O)(=O)c1ccccc1)C2`, the GI50 in test [1], in test [17], in test [2], in test [3], in test [18] and in test [4] was > 100 µM (inactive) each time. The GI50 is > 100 µM (inactive) in test [5]; 79.8 µM (inactive) in test [7]; > 100 µM (inactive) in test [8]; > 100 µM (inactive) in [9]; > 100 µM (inactive) in test [12]; > 100 µM (inactive) in [13]. The GI50 in test [14], in test [15] and in test [16] was > 100 µM (inactive) throughout.

Take `O=C1O[C@H](C(Cl)(Cl)Cl)N2CCCC12` (stereo partly specified): the GI50 in [1], in [17], in test [2], in test [18], in test [4] and in test [5] was > 100 µM (inactive) each time. For the same compound, the GI50 in test [7], in test [8], in test [9], in [10], in test [11] and in [12] was > 100 µM (inactive) in each case. Also, the GI50 in test [15] was > 100 µM (inactive).

As to `CC(C)(C)c1cc(C(C)(C)C)c(SS(=O)(=O)O)c(O)c1O`, the GI50 in [1] was 40 µM (inactive); in [17] it was 34 µM (inactive); in test [2], 54.6 µM (inactive); in test [3], 58.1 µM (inactive); in test [18] it was > 100 µM (inactive); in test [4] it was 55.7 µM (inactive). The GI50 in test [5] was 63.7 µM (inactive); in test [6], 33.7 µM (inactive); in test [7], 31.6 µM (inactive); in [8], 44.9 µM (inactive); in [9] it was 46.8 µM (inactive); in test [10], < 0.01 µM (active). The GI50 in test [11] is 13.4 µM (inactive); in [12], 79.1 µM (inactive); in [13] it was > 100 µM (inactive); in test [15] it was 81.8 µM (inactive); in test [16] it was 33 µM (inactive).

As for `CC/C(=C/OC)P1(=O)OC(C)(C)CN1C(C)(C)C` (stereo unspecified), the GI50 in [1], in test [17], in test [2], in [3], in test [18] and in test [4] was > 100 µM (inactive) each time. The GI50 in test [5], in [6], in [7], in [8], in [9] and in test [11] was > 100 µM (inactive) in each case. The GI50 in test [12], in [13], in test [14] and in [16] was > 100 µM (inactive) throughout.

With `CC1=CC(=O)/C(=C/NC(=S)NCCc2ccccc2)C(=O)O1`, the GI50 in test [1], in test [17], in test [2], in test [3], in test [18] and in [4] was > 100 µM (inactive) in each case. The GI50 in [5] was 31 µM (inactive); in test [6], > 100 µM (inactive); in [7], > 100 µM (inactive); in [8], > 100 µM (inactive); in test [9] it was > 100 µM (inactive); in test [10], > 100 µM (inactive). For the same compound, the GI50 in test [12] was > 100 µM (inactive); in [13] it was 53.7 µM (inactive); in test [15], > 100 µM (inactive); in [16] it was 27.2 µM (inactive).
